Results published in BindingDB's records for PubMed 36325400 (Prince Sattam Bin Abdulaziz University, 2022).

Target: Phospholipase A2 group V (Homo sapiens) (UniProt P39877)
Assay: Inhibition of recombinant human sPLA2-V

Phospholipase A2 group V (Homo sapiens), sequence (P39877 whole entry, looked up): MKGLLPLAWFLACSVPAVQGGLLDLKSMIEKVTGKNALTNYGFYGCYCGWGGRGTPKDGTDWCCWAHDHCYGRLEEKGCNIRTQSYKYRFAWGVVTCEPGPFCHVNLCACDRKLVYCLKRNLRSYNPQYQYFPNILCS

Row | IC50 | SMILES
1 | 3100 nM | COc1ccnc(Nc2n[nH]c(N)c2C#N)c1
2 | 2600 nM | COc1ccnc(Nc2nn3c(SC)c(C#N)c(N)nc3c2C#N)c1
3 | 1000 nM | COc1ccnc(Nc2nn3c(SC)c(C#N)c(O)nc3c2C#N)c1
4 | 3200 nM | COc1ccnc(Nc2nn3c(C)cc(C)nc3c2C#N)c1
5 | 1700 nM | CCOc1cc(C)nc2c(C#N)c(Nc3cc(OC)ccn3)nn12
6 | 3200 nM | CCOc1cc(N)n2nc(Nc3cc(OC)ccn3)c(C#N)c2n1
7 | 590 nM | C[C@@H]1C[C@H]2[C@@H]3CCC4=CC(=O)C=C[C@]4(C)[C@@]3(F)[C@@H](O)C[C@]2(C)[C@@]1(O)C(=O)CO [dexamethasone (tetramethyl-rhodamine conjugated )]
